This assay deals with T1, Human Factor D (Homo sapiens, UniProt P00746).
T1 construct: purified from human serum; purchased Complement Technology, Inc; host or cells: human serum (natural protein, not recombinant)
T1 sequence (P00746 26-253): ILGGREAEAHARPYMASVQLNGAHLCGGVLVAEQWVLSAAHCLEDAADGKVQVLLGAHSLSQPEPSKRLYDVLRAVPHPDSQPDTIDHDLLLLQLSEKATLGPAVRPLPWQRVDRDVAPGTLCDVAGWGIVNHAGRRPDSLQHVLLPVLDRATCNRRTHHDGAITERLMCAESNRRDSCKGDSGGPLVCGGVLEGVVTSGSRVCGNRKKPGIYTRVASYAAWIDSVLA
The assay is described as follows: Human Factor D assay (Z-L-Lys-SBzl/DTNB, absorbance at 405 nm). The assay is classed as biochemical. The conditions noted are these: Table 3; Human Factor D 80 nM, purified from human serum; substrate Z-L-Lys-SBzl; read-out: IC50 (Stars). On the procedure: Example 44. Human Factor D Assay
Human Factor D (purified from human serum, Complement Technology, Inc.) at 80 nM final concentration was incubated with test compound at various concentrations for 5 minutes at room temperature in 50 mM Tris, 1M NaCl, pH 7.5. A synthetic substrate Z-L-Lys-SBzl and DTNB (Ellman's reagent) are added to final concentrations of 100 µM each. Absorbance at 405 nm (A405) was recorded at 30 second intervals for 30 minutes using a microplate spectrophotometer. IC50 values are calculated by nonlinear regression of complement Factor D reaction rates as a function of test compound concentration.
For `CCOP(=O)(OCC)c1nc2c(s1)c(C(N)=O)nn2CC(=O)N1[C@@H]2C[C@@H]2C[C@H]1C(=O)Nc1cccc(-c2cc(C(C)=O)ccc2Cl)c1F` [Compound 104, diethyl (1-(2-((1R,3S,5R)-3-((5′-acetyl-2′-chloro-2-fIuoro-[1,1′-biphenyl]-3-yl)carbamoyl)-2-azabicyclo[3.1.0]hexan-2-yl)-2-oxoethyl)-3-carbamoyl-1H-pyrazolo[3,4-d]thiazol-5-yl)phosphonate], the IC50 is under 1000 nM.
Then `CC(=O)c1nn(CC(=O)N2C[C@H](F)C[C@H]2C(=O)Nc2cccc(Br)n2)c2cc(P(=O)(O)O)ccc12` [Compound 105, (3-acetyl-1-(2-((2S,4R)-2-((6-bromopyridin-2-yl)carbamoyl)-4-fluoropyrrolidin-1-yl)-2-oxoethyl)-1H-indazol-6-yl)phosphonic acid], with under 1000 nM; and `CC(=O)c1nn(CC(=O)N2[C@H](C(=O)Nc3cccc(Br)n3)C[C@@]3(C)C[C@@H]23)c2cc(P(=O)(O)O)ccc12` [Compound 106, (3-acetyl-1-(2-((1R,3S,5R)-3-((6-bromopyridin-2-yl)carbamoyl)-5-methyl-2-azabicyclo[3.1.0]hexan-2-yl)-2-oxoethyl)-1H-indazol-6-yl) phosphonic acid], with under 1000 nM; and `CCOP(=O)(OCC)c1nc2c(s1)c(C(N)=O)nn2CC(=O)N1C[C@H](F)C[C@H]1C(=O)Nc1cccc(C)n1` [Compound 146], with over 10000 nM.
For the compound `CCOP(=O)(OCC)c1nc2c(s1)c(C(N)=O)nn2CC(=O)N1C[C@H](F)C[C@H]1C(=S)NC1CCC(c2cc3sccc3s2)C1` (some centres unmarked) [Compound 148], the 50% inhibitory concentration (IC50) is over 10000 nM.

For the origin of these results see patent US10000516B2 (priority 2015, dated 2018).
